Test system: Runx2
Experiment: Runx2 activity, 6xOSE2-Luc luciferase reporter in transfected C2C12 cells
Format: cell-based, Mouse
Conditions: 24 hrs; for fold induction at 2.5 µM / fold induction at 5 µM / fold induction at 10 µM / fold induction at 20 µM: Mus musculus, read-out: luciferase activity relative to control set as 1
Experimental: Mouse premyoblast cell (C2C12 cell) was transfected using receptor vector 6xOSE2-Luc in order to investigate the activity of the amide compound of the present invention on Runx2.
Specifically, the receptor vector 6xOSE2-Luc was prepared by inserting an artificial promoter linked by six tandem copies of the OSE2 (osteoblast specific element-2) into vector pGL3 (Promega; Madison, Wis., U.S.A.), and then, cloned into the C2C12 cell to be transfected (Kim et al., Journal of Cellular Biochemistry, 91: 1239-1247, 2004). The OSE2 is the binding site of Runx2 in the promoter of osteocalcin which is a bone marker.
C2C12 cells (5,000 cells/well) were plated onto 96-well plates using 10% FBS (fetal bovine serum; Hyclone)-containing DMEM (Dulbecco's Modified Eagle's Medium), the medium was replaced with 5% FBS-containing DMEM after 24 hrs, and treated with each of the amide compounds obtained in Examples 1 to 94 at various concentrations of 2.5 μM, 5.0 μM, 10 μM, and 20 μM. As a control, dimethyl sulfoxide (DMSO) vehicle was applied to the cell in an amount same as that of the amide compound. After 24 hrs, the luciferase activity in the cell lysate was measured by using Dual-Luciferase Reporter Assay System (Promega). The luciferase activity of the amide compound of the present invention was calculated as a value relative to that observed for the control which was set as 1.

Compound | fold induction at 2.5 µM (2.5 μM) | fold induction at 5 µM (5.0 μM) | fold induction at 10 µM (10 μM) | fold induction at 20 µM (20 μM) | luciferase activity relative to control set as 1 (2.5 μM) | luciferase activity relative to control set as 1 (5.0 μM) | luciferase activity relative to control set as 1 (10 μM) | luciferase activity relative to control set as 1 (20 μM)
Nc1cccc(-c2cccc3c2CN(Cc2ccc(C(=O)Nc4ccccc4N)cc2)C3=O)c1 [Example 18, N-(2-aminophenyl)-4-((4-(3-aminophenyl)-1-oxoisoindolin-2-yl)methyl)benzamide] | 15.3 | 16.2 | 20.2 | 18.5 |  |  |  | 
NC(=O)c1cccc(-c2cccc3c2CN(Cc2ccc(C(=O)Nc4ccccc4N)cc2)C3=O)c1 [Example 26, 3-[2-(4-[(2-aminophenyl)carbamoyl]phenylmethyl)-1-oxo-2,3-dihydro-1H-isoindol-4-yl]benzamide] | 1.6 | 2.3 | 4.4 | 18.4 |  |  |  | 
Nc1ccccc1NC(=O)c1ccc(CN2Cc3cc(-c4ccc(C(F)(F)F)cc4)ccc3C2=O)cc1 [Example 59, N-(2-aminophenyl)-4-((5-(4-(trifluoromethyl)phenyl)-1-oxoisoindolin-2-yl)methyl)benzamide] | 3.3 | 4.5 | 4.1 | 3.8 |  |  |  | 
Nc1ccccc1NC(=O)CCCCCN1Cc2c(Br)cccc2C1=O [Example 36, N-(2-aminophenyl)-6-(4-bromo-1-oxoisoindolin-2-yl)hexanamide] | 2.1 | 3 | 8 | 13 |  |  |  | 
Nc1ccccc1NC(=O)c1ccc(CN2Cc3cc(-c4ccc5ccccc5c4)ccc3C2=O)cc1 [Example 67, N-(2-aminophenyl)-4-((5-(naphthalen-2-yl)-1-oxoisoindolin-2-yl)methyl)benzamide] | 1.4 | 2 | 2.9 | 6.1 |  |  |  | 
Cc1c(C(=O)NCCCCCC(=O)Nc2ccccc2N)cccc1-c1ccncc1 [Example 84, N-(5-(2-aminophenylcarbamoyl)pentyl)-2-methyl-3-(4-pyridinyl)-benzamide] | 1.9 | 3.3 | 7.8 | 17.3 |  |  |  | 
Cc1cc(C)cc(-c2ccc3c(c2)CN(Cc2ccc(C(=O)Nc4ccccc4N)cc2)C3=O)c1 [Example 62, N-(2-aminophenyl)-4-((5-(3,5-dimethylphenyl)-1-oxoisoindolin-2-yl)methyl)benzamide] | 4.6 | 5.8 | 5.5 | 6.6 |  |  |  | 
Cc1ccc(-c2cccc3c2CN(Cc2ccc(C(=O)Nc4ccccc4N)cc2)C3=O)cc1F [Example 27, N-(2-aminophenyl)-4-((4-(3-fluoro-4-methylphenyl)-1-oxoisoindolin-2-yl)methyl)benzamide] | 9.9 | 17.5 | 22.5 | 20.3 |  |  |  | 
Cc1c(Br)cccc1C(=O)NCc1ccc(C(=O)Nc2ccccc2N)cc1 [Example 68, N-(2-aminophenyl)-4-((3-bromo-2-methylbenzamido)methyl)benzamide] | 9 | 10.1 | 12.8 | 15.6 |  |  |  | 
COc1cc2c(c(-c3cccnc3)c1OC)CN(CCCCCC(=O)Nc1ccccc1N)C2=O [Example 33, N-(2-aminophenyl)-6-(5,6-dimethoxy-1-oxo-4-(pyridin-3-yl)isoindolin-2-yl)hexanamide] | 1.8 | 3.4 | 10 | 29 |  |  |  | 
COc1cc2c(c(-c3ccc(C(F)(F)F)cc3)c1OC)CN(CCCCCC(=O)Nc1ccccc1N)C2=O [Example 35, N-(2-aminophenyl)-6-(4-(4-(trifluoromethyl)phenyl)-5,6-dimethoxy-1-oxoisoindolin-2-yl)hexanamide] | 2.9 | 6.7 | 14.2 | 22.3 |  |  |  | 
COc1ccc(-c2ccc3c(c2)CN(Cc2ccc(C(=O)Nc4ccccc4N)cc2)C3=O)cc1 [Example 63] |  |  |  |  | 8.3 fold | 10.3 fold | 13.1 fold | 14.2 fold
Nc1ccccc1NC(=O)CCCCCN1Cc2c(cccc2-c2ccccc2)C1=O [Example 37, N-(2-aminophenyl)-6-(1-oxo-4-phenylisoindolin-2-yl)hexanamide] | 1.6 | 2.6 | 6.8 | 12.5 |  |  |  | 
Cc1cc(C(=O)NCCCCCC(=O)Nc2ccccc2N)ccc1Br [Example 85, N-(5-(2-aminophenylcarbamoyl)pentyl)-4-bromo-3-methylbenzamide] | 2.15 | 6.7 | 13.9 | 14.3 |  |  |  | 
Cc1c(C(=O)NCCCCCC(=O)NO)cccc1-c1ccccc1 [Example 92, N-(5-(hydroxycarbamoyl)pentyl)-2-methyl-3-phenylbenzamide] | 4.1 | 8.8 | 12.4 | 11.5 |  |  |  | 
COc1ccc(-c2cccc3c2CN(CCCCCC(=O)NO)C3=O)c(OC)c1 [Example 39, N-hydroxy-6-(4-(2,4-dimethoxyphenyl)-1-oxoisoindolin-2-yl)hexanamide] | 1.4 | 2.1 | 5.3 | 25.6 |  |  |  | 
COc1ccc(-c2cccc3c2CN(Cc2ccc(C(=O)Nc4ccccc4N)cc2)C3=O)cc1F [Example 24, N-(2-aminophenyl)-4-((4-(3-fluoro-4-methoxyphenyl)-1-oxoisoindolin-2-yl)methyl)benzamide] | 11.8 | 17.3 | 19.6 | 21.2 |  |  |  | 
COc1ccc(-c2c3c(cc(OC)c2OC)C(=O)N(Cc2ccc(C(=O)Nc4ccccc4N)cc2)C3)cc1OC [Example 7, N-(2-aminophenyl)-4-((5,6-dimethoxy-4-(3,4-dimethoxyphenyl)-1-oxoisoindolin-2-yl)methyl)benzamide] | 24.6 | 26.9 | 24.3 | 18.4 |  |  |  | 
Cc1cc(C(=O)NCCCCCC(=O)Nc2ccccc2N)ccc1-c1ccccc1 [Example 86, N-(5-(2-aminophenylcarbamoyl)pentyl)-3-methyl-4-phenyl-benzamide] | 1.2 | 1.9 | 3.4 | 3.7 |  |  |  | 
COc1ccc(-c2cccc3c2CN(CCCCCC(=O)NO)C3=O)cc1OC [Example 40, N-hydroxy-6-(4-(3,4-dimethoxyphenyl)-1-oxoisoindolin-2-yl)hexanamide] | 1.1 | 1.1 | 1.7 | 1.6 |  |  |  | 
Nc1ccc(-c2cccs2)cc1NC(=O)CCCCCN1Cc2c(cccc2-c2cncnc2)C1=O [Example 47, N-(2-amino-5-(thiophen-2-yl)phenyl)-6-(1-oxo-4-(pyrimidin-5-yl)isoindolin-2-yl)hexanamide] | 1.1 | 1.2 | 1.3 | 1.6 |  |  |  | 
COc1ccc(-c2c3c(cc(OC)c2OC)C(=O)N(Cc2ccc(C(=O)Nc4ccccc4N)cc2)C3)cc1 [Example 5, N-(2-aminophenyl)-4-((5,6-dimethoxy-4-(4-methoxyphenyl)-1-oxoisoindolin-2-yl)methyl)benzamide] | 30.4 | 25.3 | 17.7 | 15.4 |  |  |  | 
COc1cc2c(c(-c3ccccc3)c1OC)CN(Cc1ccc(C(=O)Nc3ccccc3N)cc1)C2=O [Example 2, N-(2-aminophenyl)-4-((5,6-dimethoxy-1-oxo-4-phenylisoindolin-2-yl)methyl)benzamide] | 27.3 | 24.8 | 19.7 | 21.7 |  |  |  | 
COc1cc(C(=O)NCc2ccc(C(=O)Nc3ccccc3N)cc2)c(C)c(-c2ccc(C(F)(F)F)cc2)c1OC [Example 78, N-(2-aminophenyl)-4-((2-methyl-3-(4-trifluoromethylphenyl)-4,5-dimethoxy-benzamido)methyl)benzamide] | 6.4 | 12.8 | 19.1 | 21.1 |  |  |  | 
Cc1cc(C)cc(-c2cccc3c2CN(CCCCCC(=O)NO)C3=O)c1 [Example 41, N-hydroxy-6-(4-(3,5-dimethylphenyl)-1-oxoisoindolin-2-yl)hexanamide] | 2.5 | 4.6 | 12.4 | 28 |  |  |  | 

From patent US8716326B2, “Isoindolinone derivatives, preparation method thereof and a pharmaceutical composition comprising same” (Korea Research Institute of Chemical Technology, priority 2009, dated 2014)
